# Target: T1, β-lactamase (Enterobacter cloacae, UniProt P05364)
# T1 construct: obtained by destruction of the microbial cells with ultrasonic waves; endogenous in cells
# Assay: β-lactamase inhibition (iodometric absorbance at 575 nm; β-lactamase solution obtained by ultrasonic destruction of microbial cells)
# Type: biochemical
# Conditions: Enterobacter cloacae used as the β-lactamase-producing microorganism; pH 7.0, 30° C., 20 minutes; sample concentration not given
# Method: A phosphate buffer solution (pH 7.0, 0.5M, 0.2 ml), a sample*, which is a β-lactamase inhibiting agent, dissolved in the same buffer solution as mentioned above, and water (10 ml) were put in a test tube. In this tube, ampicillin (2 mM, 0.2 ml) in the case of penicillinase, and cephaloridine (2 mM, 0.2 ml) in the case of cephalosporinase, were added. This mixture was stirred moderately for 5 minutes at 30° C. in a thermostat. Microbial cells producing β-lactamase were collected, washed and suspended in the same buffer solution as above and thereto a β-lactamase solution (0.1 ml) obtained by destruction of the microbial cells with ultrasonic waves was added and reacted for 20 minutes.
# The reaction was stopped by adding sodium tungstate (0.15M, pH 4.0, 1 ml) and an iodo reagent (3 ml) having iodine (0.1 mM), potassium iodide (1.6 mM) and 0.4% starch solution, (pH 6.0) was added thereto and was allowed to stand for 20 minutes. The absorbance was determined at 575 nm.
# On the other hand, the same experiment as above without the sample (Control) was carried out and the absorbances were determined in the same manner as above.
# From each determined value as obtained above, the difference between the absorbance of the blank and that of the sample, referred to as As, and the difference between the absorbance of the blank and that of the Control referred to as AB were obtained, and therefrom the inhibiting ratio was calculated by the following equation:
# Inhibiting Ratio(%)=(AS/AB)×100
# Some of the results as obtained above, in which Enterobacter cloacae was used as the β-lactamase-producing microorganism was used are as follows: […]
# T1 sequence (P05364 21-381): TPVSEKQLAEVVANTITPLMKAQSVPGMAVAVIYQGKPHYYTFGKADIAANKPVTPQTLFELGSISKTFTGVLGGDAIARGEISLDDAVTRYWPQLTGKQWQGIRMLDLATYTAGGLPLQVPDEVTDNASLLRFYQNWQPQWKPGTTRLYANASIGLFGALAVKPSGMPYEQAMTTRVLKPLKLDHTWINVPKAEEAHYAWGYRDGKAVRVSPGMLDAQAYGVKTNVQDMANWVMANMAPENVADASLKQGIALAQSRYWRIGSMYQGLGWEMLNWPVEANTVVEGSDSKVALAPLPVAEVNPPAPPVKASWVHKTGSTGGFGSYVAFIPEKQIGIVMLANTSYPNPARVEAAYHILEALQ
row,Compound,Inhibiting Ratio (%)
1,"CC(C)=C(C(=O)O)N1C(=O)[C@@H](N)[C@H]1S(C)(=O)=O [Sample 4, (3R, 4R)-1-(1-carboxy-2-methylprope-1-nyl)-4-methylsulfonyl-3-amino-2-azetidinone]",35.8%
2,"COC(=O)C(C(=O)O)N1C(=O)CC1SC (stereo not shown) [Sample 1, 1-(1-carboxy-1-methyoxycarbonylmethyl)-4-methylthio-2-azetidinone]",46.2%
3,"COC(=O)C(C(=O)O)N1C(=O)CC1S(C)(=O)=O (stereo not shown) [Sample 2, 1-(1-carboxy-1-methoxycarbonylmethyl)-4-methylsulfonyl-2-azetidinone]",51.4%
4,"CC(C)=C(C(=O)O)N1C(=O)[C@@H](NC(=O)[C@H](N)c2ccccc2)[C@H]1S(C)(=O)=O [Sample 3, (3R,4R)-1-(1-carboxy-2-methylprope-1-nyl)-4-methylsulfonyl-3-[D-(-)-α-aminophenylacetamide]-2-azetidinone]",27.6%
